Measured values from ChEMBL document CHEMBL1128928, “Synthesis and biological properties of partially modified retro and retro-inverso pseudo peptides of arg-gly-asp (RGD)” (Bioorg Med Chem Lett, 1996).
One block for each molecule: values may come before it.

What was measured:
Type in all cases: functional
[1] = species: Homo sapiens; test: Compound was evaluated for inhibition of ADP-induced human platelet aggregation at concentration 1 mg/mL.
[2] = test system: B16; test: Compound was evaluated for lung metastasis produced by 500 ug/mouse i.v. injection of B16-BL6 melanoma.; Range 44-154
[3] = test system: B16; test: Compound was evaluated for lung metastasis produced by 500 ug/mouse i.v. injection of B16-BL6 melanoma,; Range 19-63
[4] = species: Homo sapiens; test: Compound was evaluated for inhibition of ADP-induced human platelet aggregation.
[5] = test system: B16; test: Compound was evaluated for lung metastasis produced by 500 ug/mouse i.v. injection of B16-BL6 melanoma. Range 4-36

SMILES: N=C(N)NCCC[C@H](N)C(=O)NCC(=O)N[C@@H](CC(=O)O)C(=O)N[C@@H](CO)C(=O)O
- inhibition at 1000 µg/mL [1]: 100%
- No. of lung metastasis [2]: 93

SMILES: N=C(N)NCCC[C@@H](NC(=O)CC(=O)N[C@@H](CC(=O)O)C(=O)O)C(=O)O
- No. of lung metastasis [3]: 38
- inhibition at 1000 µg/mL [1]: 53%

- IC50 [4]: 2.4 mM
SMILES: N=C(N)NCCC[C@H](NC(=O)CC(=O)N[C@@H](CC(=O)O)C(=O)O)C(=O)O
- inhibition at 1000 µg/mL [1]: 57%
- No. of lung metastasis [5]: 19
